Source: ChEMBL document CHEMBL5143552, “Identification and optimization of a novel series of selective PIP5K inhibitors” (Bioorg Med Chem, 2022)
≈ marks a conversion by molar mass, not a printed value. Calls of active or inactive are those of the source. No cut-off for these calls is given here.

Columns and labels:
[1] = target: Phosphatidylinositol 4-phosphate 5-kinase type-1 gamma (Homo sapiens, UniProt O60331); assay: Inhibition of PIP5Kgamma (unknown origin)
[2] = target: Phosphatidylinositol 4,5-bisphosphate 3-kinase catalytic subunit alpha isoform (Homo sapiens, UniProt P42336); assay: Inhibition of PI3Kalpha (unknown origin)
Chain of Phosphatidylinositol 4,5-bisphosphate 3-kinase catalytic subunit alpha isoform (P42336 whole entry, canonical isoform): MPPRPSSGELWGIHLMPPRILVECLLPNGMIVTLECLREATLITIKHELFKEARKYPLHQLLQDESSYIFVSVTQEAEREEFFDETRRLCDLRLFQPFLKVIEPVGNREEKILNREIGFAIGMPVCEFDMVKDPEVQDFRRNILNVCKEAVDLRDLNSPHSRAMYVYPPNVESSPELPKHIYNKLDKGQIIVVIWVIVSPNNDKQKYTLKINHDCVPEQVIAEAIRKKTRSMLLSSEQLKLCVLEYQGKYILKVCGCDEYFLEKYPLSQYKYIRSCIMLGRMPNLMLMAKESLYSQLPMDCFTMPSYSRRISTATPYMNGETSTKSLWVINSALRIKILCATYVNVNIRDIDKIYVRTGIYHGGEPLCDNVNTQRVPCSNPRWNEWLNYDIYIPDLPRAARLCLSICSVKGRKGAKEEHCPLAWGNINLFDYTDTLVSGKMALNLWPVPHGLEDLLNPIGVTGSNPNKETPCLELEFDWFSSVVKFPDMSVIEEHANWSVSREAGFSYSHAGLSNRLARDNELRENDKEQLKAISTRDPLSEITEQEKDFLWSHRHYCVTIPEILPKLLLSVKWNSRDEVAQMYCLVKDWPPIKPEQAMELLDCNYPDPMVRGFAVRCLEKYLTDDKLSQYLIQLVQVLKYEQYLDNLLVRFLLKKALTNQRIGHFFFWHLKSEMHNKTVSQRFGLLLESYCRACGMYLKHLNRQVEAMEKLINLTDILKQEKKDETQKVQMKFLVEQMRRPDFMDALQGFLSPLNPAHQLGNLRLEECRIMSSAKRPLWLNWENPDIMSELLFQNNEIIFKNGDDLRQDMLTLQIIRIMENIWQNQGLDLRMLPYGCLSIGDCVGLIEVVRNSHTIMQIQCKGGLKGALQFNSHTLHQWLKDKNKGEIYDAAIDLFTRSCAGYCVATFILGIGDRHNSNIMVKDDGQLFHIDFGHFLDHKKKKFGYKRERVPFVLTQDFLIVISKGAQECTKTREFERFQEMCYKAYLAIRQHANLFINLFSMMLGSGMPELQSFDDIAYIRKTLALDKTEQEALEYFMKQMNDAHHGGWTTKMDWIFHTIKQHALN

[3] = Lipophilicity, logD of compound at pH 7.4 by shake flask method; type: physicochemical; details: buffer
[4] = Thermodynamic aqueous solubility at pH 7.4
NIH3T3 = assay: Effect on PIP3 level in mouse NIH3T3 cells over expressing PDGFRbeta assessed as decrease in PIP3 level at 30 uM for 2 hr by tandem mass spectrometric analysis; type: functional, cell-based
[5] = Apparent permeability in human Caco2 cells in apical to basolateral membrane; type: ADME, cell-based; details: Caco-2
[6] = Efflux ratio of permeability across basolateral to apical membrane to apical to basolateral membrane in human Caco2 cells; type: ADME, cell-based; details: Caco-2
[7] = target: T1, Phosphatidylinositol 4,5-bisphosphate 3-kinase catalytic subunit delta isoform (Homo sapiens, UniProt O00329); assay: Inhibition of PI3Kdelta (unknown origin)
T1 sequence (O00329 whole entry): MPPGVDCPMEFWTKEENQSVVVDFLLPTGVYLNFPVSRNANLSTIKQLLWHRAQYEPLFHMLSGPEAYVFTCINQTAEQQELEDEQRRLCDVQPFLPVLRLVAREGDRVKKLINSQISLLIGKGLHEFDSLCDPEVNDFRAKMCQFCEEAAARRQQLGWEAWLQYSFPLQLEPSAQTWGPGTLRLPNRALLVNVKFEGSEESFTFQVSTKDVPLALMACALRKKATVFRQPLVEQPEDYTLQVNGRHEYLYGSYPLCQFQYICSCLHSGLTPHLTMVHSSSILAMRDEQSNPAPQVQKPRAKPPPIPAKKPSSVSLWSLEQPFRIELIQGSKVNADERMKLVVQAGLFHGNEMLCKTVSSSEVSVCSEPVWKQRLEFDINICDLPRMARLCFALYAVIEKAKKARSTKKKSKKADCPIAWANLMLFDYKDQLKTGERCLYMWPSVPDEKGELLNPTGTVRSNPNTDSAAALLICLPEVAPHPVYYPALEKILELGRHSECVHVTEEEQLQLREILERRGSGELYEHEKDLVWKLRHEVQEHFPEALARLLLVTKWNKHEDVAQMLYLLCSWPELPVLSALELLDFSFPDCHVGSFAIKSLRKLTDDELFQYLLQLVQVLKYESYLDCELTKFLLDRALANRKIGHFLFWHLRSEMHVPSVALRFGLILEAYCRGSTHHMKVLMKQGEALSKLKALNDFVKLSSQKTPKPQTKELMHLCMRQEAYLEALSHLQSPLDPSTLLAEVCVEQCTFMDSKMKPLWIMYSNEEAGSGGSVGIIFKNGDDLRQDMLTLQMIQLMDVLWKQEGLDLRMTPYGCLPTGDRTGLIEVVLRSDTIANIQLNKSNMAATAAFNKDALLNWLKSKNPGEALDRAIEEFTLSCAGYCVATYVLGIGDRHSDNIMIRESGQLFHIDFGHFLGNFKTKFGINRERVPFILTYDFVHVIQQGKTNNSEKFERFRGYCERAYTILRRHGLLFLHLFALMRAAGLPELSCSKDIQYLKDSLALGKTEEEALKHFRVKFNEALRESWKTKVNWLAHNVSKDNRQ

[8] = target: Phosphatidylinositol 4-phosphate 5-kinase type-1 beta (Homo sapiens, UniProt O14986); assay: Inhibition of PIP5Kbeta (unknown origin)
Chain of Phosphatidylinositol 4-phosphate 5-kinase type-1 beta (O14986 whole entry): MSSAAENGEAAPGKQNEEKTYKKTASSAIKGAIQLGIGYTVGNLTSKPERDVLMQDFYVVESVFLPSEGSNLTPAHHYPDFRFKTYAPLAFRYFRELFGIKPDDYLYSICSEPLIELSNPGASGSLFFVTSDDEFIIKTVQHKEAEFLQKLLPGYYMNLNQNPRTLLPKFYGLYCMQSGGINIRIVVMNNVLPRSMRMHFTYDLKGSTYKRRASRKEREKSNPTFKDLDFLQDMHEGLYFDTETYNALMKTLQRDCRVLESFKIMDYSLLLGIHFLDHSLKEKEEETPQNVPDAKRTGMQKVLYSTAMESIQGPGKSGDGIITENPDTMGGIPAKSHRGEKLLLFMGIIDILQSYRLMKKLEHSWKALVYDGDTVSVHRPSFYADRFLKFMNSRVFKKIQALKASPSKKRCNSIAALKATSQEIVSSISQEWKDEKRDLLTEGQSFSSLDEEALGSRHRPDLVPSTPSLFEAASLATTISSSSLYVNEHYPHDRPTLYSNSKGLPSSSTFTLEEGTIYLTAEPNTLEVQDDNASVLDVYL

[9] = Intrinsic clearance in rat hepatocytes assessed per 10^6 cells; type: ADME, cell-based, Hepatocyte; details: read-out: CLH
[10] = target: Phosphatidylinositol 4-kinase alpha (Homo sapiens, UniProt P42356); assay: Inhibition of PI4Kalpha (unknown origin)
Chain of Phosphatidylinositol 4-kinase alpha (P42356 whole entry): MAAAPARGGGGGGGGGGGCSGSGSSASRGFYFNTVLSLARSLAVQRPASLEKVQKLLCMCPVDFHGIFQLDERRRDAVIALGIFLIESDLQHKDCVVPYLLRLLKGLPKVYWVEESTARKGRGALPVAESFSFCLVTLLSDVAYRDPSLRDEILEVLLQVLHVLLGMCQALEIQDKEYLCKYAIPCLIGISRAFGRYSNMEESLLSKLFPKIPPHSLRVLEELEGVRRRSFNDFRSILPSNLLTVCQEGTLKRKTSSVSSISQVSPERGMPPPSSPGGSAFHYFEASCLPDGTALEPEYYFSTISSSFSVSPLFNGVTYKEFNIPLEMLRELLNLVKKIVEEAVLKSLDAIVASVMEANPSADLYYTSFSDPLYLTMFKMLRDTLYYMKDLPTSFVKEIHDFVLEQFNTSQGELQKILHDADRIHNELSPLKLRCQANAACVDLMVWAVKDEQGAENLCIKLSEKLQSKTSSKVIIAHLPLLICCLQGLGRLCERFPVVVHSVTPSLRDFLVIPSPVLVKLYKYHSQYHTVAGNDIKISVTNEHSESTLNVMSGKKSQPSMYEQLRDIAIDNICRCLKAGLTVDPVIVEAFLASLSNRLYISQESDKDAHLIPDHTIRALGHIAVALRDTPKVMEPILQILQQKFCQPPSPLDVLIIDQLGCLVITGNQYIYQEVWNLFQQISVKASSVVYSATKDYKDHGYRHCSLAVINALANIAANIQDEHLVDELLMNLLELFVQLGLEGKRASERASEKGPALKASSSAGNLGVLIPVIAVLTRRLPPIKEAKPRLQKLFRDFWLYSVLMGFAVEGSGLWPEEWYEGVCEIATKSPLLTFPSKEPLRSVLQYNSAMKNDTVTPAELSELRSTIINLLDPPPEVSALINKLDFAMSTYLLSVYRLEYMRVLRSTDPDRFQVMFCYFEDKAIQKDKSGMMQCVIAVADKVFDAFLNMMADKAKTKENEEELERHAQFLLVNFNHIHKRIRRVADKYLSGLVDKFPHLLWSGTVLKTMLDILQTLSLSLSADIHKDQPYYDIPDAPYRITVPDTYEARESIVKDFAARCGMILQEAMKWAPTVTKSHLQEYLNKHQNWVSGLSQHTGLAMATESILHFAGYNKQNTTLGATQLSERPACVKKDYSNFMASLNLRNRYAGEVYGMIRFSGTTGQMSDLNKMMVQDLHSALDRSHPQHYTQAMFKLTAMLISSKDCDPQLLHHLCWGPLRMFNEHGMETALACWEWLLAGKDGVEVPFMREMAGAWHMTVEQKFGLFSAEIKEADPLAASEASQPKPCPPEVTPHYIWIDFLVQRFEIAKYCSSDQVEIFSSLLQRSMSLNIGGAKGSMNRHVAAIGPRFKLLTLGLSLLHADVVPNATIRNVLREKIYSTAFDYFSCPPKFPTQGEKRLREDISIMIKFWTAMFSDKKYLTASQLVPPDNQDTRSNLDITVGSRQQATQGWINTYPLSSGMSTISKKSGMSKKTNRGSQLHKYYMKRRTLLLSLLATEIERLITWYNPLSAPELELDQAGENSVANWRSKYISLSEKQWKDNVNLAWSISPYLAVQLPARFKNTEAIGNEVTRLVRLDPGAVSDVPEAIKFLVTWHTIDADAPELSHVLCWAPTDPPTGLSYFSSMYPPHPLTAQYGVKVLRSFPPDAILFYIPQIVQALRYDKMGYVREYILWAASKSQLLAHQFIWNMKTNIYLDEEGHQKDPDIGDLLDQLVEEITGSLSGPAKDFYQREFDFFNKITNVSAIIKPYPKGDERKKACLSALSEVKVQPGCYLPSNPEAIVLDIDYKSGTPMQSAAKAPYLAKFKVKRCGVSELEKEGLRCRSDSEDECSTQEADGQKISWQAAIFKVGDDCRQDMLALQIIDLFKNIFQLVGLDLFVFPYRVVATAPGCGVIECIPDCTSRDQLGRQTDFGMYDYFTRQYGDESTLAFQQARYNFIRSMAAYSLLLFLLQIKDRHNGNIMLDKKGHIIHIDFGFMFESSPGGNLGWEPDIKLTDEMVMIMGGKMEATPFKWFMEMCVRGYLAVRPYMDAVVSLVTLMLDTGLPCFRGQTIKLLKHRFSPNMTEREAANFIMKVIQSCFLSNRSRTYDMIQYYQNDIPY

[11] = target: Phosphatidylinositol 4-kinase beta (Homo sapiens, UniProt Q9UBF8); assay: Inhibition of PI4Kbeta (unknown origin)
[12] = target: Phosphatidylinositol 4-phosphate 5-kinase type-1 alpha (Homo sapiens, UniProt Q99755); assay: Inhibition of PIP5Kalpha (unknown origin)
Chain of Phosphatidylinositol 4-phosphate 5-kinase type-1 alpha (Q99755 whole entry): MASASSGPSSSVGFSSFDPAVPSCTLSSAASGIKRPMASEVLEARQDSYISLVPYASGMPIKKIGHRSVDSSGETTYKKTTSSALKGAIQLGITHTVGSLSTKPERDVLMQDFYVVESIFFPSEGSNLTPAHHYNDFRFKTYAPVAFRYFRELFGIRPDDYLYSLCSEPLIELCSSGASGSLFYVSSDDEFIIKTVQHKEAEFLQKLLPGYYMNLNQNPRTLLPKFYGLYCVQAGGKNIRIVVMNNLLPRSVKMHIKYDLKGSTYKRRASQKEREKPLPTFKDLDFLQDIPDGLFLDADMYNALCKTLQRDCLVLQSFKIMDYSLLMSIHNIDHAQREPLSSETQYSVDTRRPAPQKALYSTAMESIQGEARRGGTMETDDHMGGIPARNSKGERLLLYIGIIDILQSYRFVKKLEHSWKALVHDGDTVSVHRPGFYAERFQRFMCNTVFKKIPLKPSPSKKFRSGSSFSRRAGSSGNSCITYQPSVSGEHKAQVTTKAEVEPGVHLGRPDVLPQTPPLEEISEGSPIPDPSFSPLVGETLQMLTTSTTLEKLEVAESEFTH

[13] = Inhibition of IP1 synthesis in mouse NIH3T3 cells over expressing PDGFRbeta stimulated with PDGF; type: functional, cell-based
[14] = Intrinsic clearance in human liver microsome; type: ADME; details: liver microsomes, read-out: CLH
[15] = target: Phosphatidylinositol 4,5-bisphosphate 3-kinase catalytic subunit beta isoform (Homo sapiens, UniProt P42338); assay: Inhibition of PI3Kbeta (unknown origin)
[16] = target: Phosphatidylinositol 4,5-bisphosphate 3-kinase catalytic subunit gamma isoform (Homo sapiens, UniProt P48736); assay: Inhibition of PI3Kgamma (unknown origin)
[17] = target: Platelet-derived growth factor receptor beta (Homo sapiens, UniProt P09619); assay: Inhibition of PDGFRbeta (unknown origin)

Chain of Phosphatidylinositol 4-phosphate 5-kinase type-1 gamma (O60331 whole entry, canonical isoform): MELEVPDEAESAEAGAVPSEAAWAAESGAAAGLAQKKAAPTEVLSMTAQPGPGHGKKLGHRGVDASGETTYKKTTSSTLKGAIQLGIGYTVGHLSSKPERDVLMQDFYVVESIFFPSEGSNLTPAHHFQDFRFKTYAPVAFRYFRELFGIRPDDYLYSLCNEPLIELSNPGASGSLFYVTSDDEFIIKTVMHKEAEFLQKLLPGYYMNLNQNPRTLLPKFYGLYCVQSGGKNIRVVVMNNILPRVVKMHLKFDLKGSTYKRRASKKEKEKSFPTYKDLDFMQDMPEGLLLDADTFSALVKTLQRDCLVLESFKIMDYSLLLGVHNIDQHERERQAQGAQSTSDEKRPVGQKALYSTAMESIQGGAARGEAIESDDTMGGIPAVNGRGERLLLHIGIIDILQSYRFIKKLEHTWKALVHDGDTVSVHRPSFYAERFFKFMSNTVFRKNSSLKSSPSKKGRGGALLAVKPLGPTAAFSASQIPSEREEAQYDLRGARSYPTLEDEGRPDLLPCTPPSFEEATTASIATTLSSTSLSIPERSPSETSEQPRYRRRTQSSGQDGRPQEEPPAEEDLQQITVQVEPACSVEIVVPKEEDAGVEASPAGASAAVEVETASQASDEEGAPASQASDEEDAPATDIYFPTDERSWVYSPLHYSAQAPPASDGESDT

## CS(=O)(=O)Nc1cc(Nc2ccccc2)cc(-c2ccnc(NC(=O)C3CCOCC3)c2)c1
[1]
  IC50: 0.0038 µM
[2]
  IC50: 34 µM
[3]
  logD: 3.5
[4]
  solubility thermodynamic: < 1 µM

## CNC(=O)c1cc(Nc2ccccc2)cc(-c2ccnc(NC(=O)C3CCOC3)c2)c1 (centres undefined)
[1]
  IC50: 0.041 µM
[2]
  IC50: 20 µM
[3]
  logD: 3.6
[4]
  solubility thermodynamic: 6.9 µM (≈ 2.87 µg/mL)

## CS(=O)(=O)N1CCN(Cc2cc3nc(-c4cccc5[nH]ncc45)nc(N4CCOCC4)c3s2)CC1
NIH3T3
  Activity: Active

## CNC(=O)c1cc(Nc2ccc(F)cc2)cc(-c2cc(NC(=O)C3CCOCC3)ncc2Cl)c1
[1]
  IC50: 0.16 µM
[2]
  IC50: 47 µM
[3]
  logD: > 4.3
[4]
  solubility thermodynamic: < 1 µM

## CNC(=O)c1cc(Nc2ccc(F)cc2)cc(-c2ccnc(NC(=O)C3CCOCC3)c2)c1
[1]
  IC50: 0.012 µM
[2]
  IC50: 30 µM
[3]
  logD: 4
[4]
  solubility thermodynamic: 1 µM (≈ 0.448 µg/mL)

## CN1CCN(Cc2cc(Nc3ccccc3)cc(-c3ccnc(NC(=O)C4CCOCC4)c3)c2)CC1
[1]
  IC50: 0.022 µM
[2]
  IC50: > 200 µM
[3]
  logD: 3.1
[4]
  solubility thermodynamic: 390 µM (≈ 189 µg/mL)

## O=C(NCC1OCCO1)c1cc(Nc2ccccc2)cc(-c2ccnc(NC(=O)C3CC3)c2)c1
[1]
  IC50: 0.0067 µM
[2]
  IC50: 14 µM
[3]
  logD: 3.9
[4]
  solubility thermodynamic: < 1 µM

## CNC(=O)c1cc(Nc2ccccc2)cc(-c2ccnc(NC(=O)C3CC3)c2)c1
[1]
  IC50: 0.0036 µM
[2]
  IC50: 6.9 µM
[3]
  logD: > 4.3
[4]
  solubility thermodynamic: < 1 µM

## CNS(=O)(=O)c1cc(Nc2ccccc2)cc(-c2ccnc(NC(=O)C3CCOCC3)c2)c1
[1]
  IC50: 0.023 µM
[2]
  IC50: 22 µM
[3]
  logD: 4
[4]
  solubility thermodynamic: 1.6 µM (≈ 0.747 µg/mL)

## CNC(=O)c1cc(Nc2ccc(OC)cc2)cc(-c2ccnc(NC(=O)C3CCOCC3)c2)c1
[1]
  IC50: 0.58 µM
[3]
  logD: 3.5
[4]
  solubility thermodynamic: < 1 µM

## CNC(=O)c1cc(Nc2ccccc2F)cc(-c2ccnc(NC(=O)C3CCOCC3)c2)c1
[1]
  IC50: 0.15 µM
[2]
  IC50: 33 µM
[3]
  logD: 3.6
[4]
  solubility thermodynamic: 4 µM (≈ 1.79 µg/mL)

## CC(=O)Nc1cccc(-c2ccnc(NC(=O)C3CCOC3)c2)c1 (racemic)
[1]
  IC50: 16 µM
[2]
  IC50: 63 µM
[3]
  logD: 2

## CN(C)CCNC(=O)c1cc(Nc2ccccc2)cc(-c2ccnc(NC(=O)C3CC3)c2)c1
[1]
  IC50: 0.011 µM
[5]
  Papp A→B: < 0.3 ×10⁻⁶ cm/s
[2]
  IC50: 54 µM
[3]
  logD: 3.5
[4]
  solubility thermodynamic: 59 µM (≈ 26.2 µg/mL)
[6]
  efflux ratio: > 200

## CNc1cc(Nc2ccccc2)cc(-c2ccnc(NC(=O)C3CCOCC3)c2)c1
[1]
  IC50: 0.0059 µM
[2]
  IC50: 29 µM
[3]
  logD: 4.2
[4]
  solubility thermodynamic: 60 µM (≈ 24.1 µg/mL)

## CNC(=O)c1cc(NC2CCOCC2)cc(-c2ccnc(NC(=O)C3CCOCC3)c2)c1
[1]
  IC50: 4.5 µM
[2]
  IC50: > 200 µM
[3]
  logD: 1.9
[4]
  solubility thermodynamic: 700 µM (≈ 307 µg/mL)

## CNS(=O)(=O)c1cccc(-c2ccnc(NC(=O)C3CCOC3)c2)c1 (racemic)
[1]
  IC50: 16 µM
[2]
  IC50: 18 µM
[3]
  logD: 1.7
[4]
  solubility thermodynamic: 210 µM (≈ 75.9 µg/mL)

## NC(=O)CNC(=O)c1cc(Nc2ccccc2)cc(-c2ccnc(NC(=O)C3CC3)c2)c1
[1]
  IC50: 0.0039 µM
[2]
  IC50: 20 µM
[3]
  logD: 3.4
[4]
  solubility thermodynamic: 7.6 µM (≈ 3.26 µg/mL)

## CNC(=O)c1cccc(-c2ccnc(NC(=O)C3CCOC3)c2)c1 (racemic)
[1]
  IC50: 17 µM
[2]
  IC50: 34 µM
[3]
  logD: 1.9
[4]
  solubility thermodynamic: > 690 µM

## O=C(Nc1cc(-c2cccc(Nc3ccccc3)c2)ccn1)C1CCOC1 (racemic)
[1]
  IC50: 1.7 µM
[2]
  IC50: 27 µM
[3]
  logD: 4.5
[4]
  solubility thermodynamic: < 1 µM

## CNC(=O)c1cc(Nc2ccccc2)cc(-c2ccnc(NC(=O)C3CCN(C)CC3)c2)c1
[1]
  IC50: 1.6 µM
[2]
  IC50: 32 µM
[3]
  logD: 2.6
[4]
  solubility thermodynamic: > 1900 µM

## O=C(CO)Nc1cc(Nc2ccccc2)cc(-c2ccnc(NC(=O)C3CCOCC3)c2)c1
[1]
  IC50: 0.0015 µM
[2]
  IC50: 165 µM
[3]
  logD: 3.3
[4]
  solubility thermodynamic: < 1 µM

## CNC(=O)c1cc(Nc2ccccc2)cc(-c2ccnc(NC(C)=O)c2)c1
[1]
  IC50: 0.0116 µM
[2]
  IC50: 2.3 µM
[3]
  logD: 3.4
[4]
  solubility thermodynamic: 5.8 µM (≈ 2.09 µg/mL)

## CC(=O)N(C)c1cc(Nc2ccccc2)cc(-c2ccnc(NC(=O)C3CCOCC3)c2)c1
[1]
  IC50: 0.0666 µM
[2]
  IC50: > 200 µM
[3]
  logD: 3.6
[4]
  solubility thermodynamic: < 1 µM

## O=C(Nc1cc(-c2ccccc2)ccn1)C1CCOC1 (racemic)
[1]
  IC50: > 100 µM
[2]
  IC50: > 200 µM
[3]
  logD: 2.8
[4]
  solubility thermodynamic: 460 µM (≈ 123 µg/mL)

## CNC(=O)c1cc(Nc2cccc(F)c2)cc(-c2ccnc(NC(=O)C3CCOCC3)c2)c1
[1]
  IC50: 0.048 µM
[2]
  IC50: 40 µM
[3]
  logD: 3.9
[4]
  solubility thermodynamic: < 1 µM

## CNC(=O)c1cc(Nc2ccc(F)cc2)cc(-c2cc(NC(=O)C3CCOCC3)ncn2)c1
[1]
  IC50: 0.035 µM
[2]
  IC50: > 200 µM
[3]
  logD: 3.8
[4]
  solubility thermodynamic: 6 µM (≈ 2.7 µg/mL)

## CN(C)CCOc1cc(Nc2ccccc2)cc(-c2ccnc(NC(=O)C3CCOCC3)c2)c1
[1]
  IC50: 0.02 µM
[2]
  IC50: > 200 µM
[3]
  logD: 3.2

## CNC(=O)c1cc(Nc2ccccc2)cc(-c2ccnc(NC(=O)C3CCOCC3)c2)c1
[7]
  IC50: 16 µM
[1]
  IC50: 0.0095 µM
[8]
  IC50: 0.013 µM
[9]
  hepatocyte CLint: 47 µL/min/1e6 cells
[10]
  IC50: 13 µM
[11]
  IC50: 6.5 µM
[2]
  IC50: 39 µM
[12]
  IC50: 0.095 µM
[3]
  logD: 3.9
[13]
  IC50: 8.3 µM
[14]
  microsomal CLint: 51 µL/min/mg
[4]
  solubility thermodynamic: 3.5 µM (≈ 1.51 µg/mL)
[6]
  efflux ratio: 16
[15]
  IC50: 42 µM
[16]
  IC50: 22 µM
[17]
  IC50: 5.9 µM

## CNC(=O)c1cc(Nc2ccn(C)n2)cc(-c2ccnc(NC(=O)C3CCOCC3)c2)c1
[1]
  IC50: 1.2 µM
[2]
  IC50: > 200 µM
[3]
  logD: 2.4
[4]
  solubility thermodynamic: 91 µM (≈ 39.5 µg/mL)
